Data set [1] is described as follows: Observed pseudo-first order rate constant.
Data set [2] in a line: Observed second order rate constant.
Data set [3] in a line: Partition coefficient (logP). Particulars: octanol/water.
The species named for data set [4] is Homo sapiens. Kind of data set: Percentage of aspirin formed during hydrolysis in 10% human plasma at pH 7.4 at 37 degrees celsius.
A short description of data set [5]: in vitro. Particulars: human, 10% human plasma.
The nature of data set [6]: physchem.
Data set [7] in a line: (§1) Observed first order rate constant.
For data set [8], the species on record is Homo sapiens. As to the kind of experiment: Percentage of aspirin formed during hydrolysis in undiluted human plasma at pH 7.4 at 37 degrees celsius.
Data set [9] in a line: as §1. The data set is classed as ADME.
Data set [10] can be described thus: in vitro. Particulars: human, 10% human plasma, pH 7.4.
Description: Michaelis-Menten constant(Km) for hydrolysis in 10% human plasma(pH 7.4) at 37 degrees celsius

Converted amounts (≈) assume the structure as drawn.

For `CCOC(=O)COC(=O)c1ccccc1OC(C)=O`, the K obs in data set [1] is 0.315 min⁻¹. This molecule came in with a K2 in data set [2] of 0.315 min⁻¹. This molecule also came in with a logP in data set [3] of 1.67. The Aspirin formed in [4] turned out to be 0%. Further, the half-life in data set [5] is 2.2 min.
As to `CCOC(=O)CNC(=O)COC(=O)c1ccccc1OC(C)=O`, the K obs in [1] was found to be 0.212 min⁻¹. Moreover, the K2 in data set [2] worked out at 0.212 min⁻¹. This molecule returned a logP in [3] of 0.99. In data set [4], this molecule showed an Aspirin formed of 0%. The same molecule yielded a solubility in data set [6] of 4320 µg/mL (≈ 13.4 mM). In addition, the half-life in data set [5] was determined as 3.3 min.
`CC(=O)OCOC(=O)c1ccccc1OC(C)=O`: the K1 in data set [7] stood at 0.115 min⁻¹. Further, the K obs in data set [1] worked out at 0.395 min⁻¹. Further, the Aspirin formed is 28% in data set [8] and 29% in [4]. The molecule also showed a K2 in [2] of 0.28 min⁻¹. Besides, in data set [3], the logP came to 1.42. Also, the solubility in data set [6] was 2430 µg/mL (≈ 9.63 mM). Besides, the half-life in data set [5] was found to be 1.8 min.
On to `COC(=O)c1ccccc1OC(C)=O`, for which the K obs in [1] was found to be 0.214 min⁻¹. This molecule also displayed a K2 in data set [2] of 0.214 min⁻¹. Besides, the logP in data set [3] was 1.46. This molecule registered an Aspirin formed in data set [4] of 0%. This molecule also showed a solubility in [6] of 2810 µg/mL (≈ 14.5 mM). The same molecule came in with a half-life in data set [5] of 3.2 min.
On to `CC(=O)Oc1ccccc1C(=O)OCCN(C)C(C)=O`, for which, in data set [1], the K obs amounted to 0.205 min⁻¹. Moreover, the K2 in data set [2] amounted to 0.205 min⁻¹. In addition, the Aspirin formed in data set [4] is reported as 0%. The molecule further returned a half-life in data set [5] of 3.4 min.
With `CC(=O)Oc1ccccc1C(=O)OCC(=O)N(C)CC(N)=O`, the K obs in data set [1] was 0.0924 min⁻¹. In [9], this molecule showed a 10E2 K1 of 3.42 min⁻¹. This molecule also had a K2 in [2] of 0.0582 min⁻¹. For the same molecule, the logP in [3] was -0.46. Besides, the Aspirin formed in [4] is given as 37%. Besides, the Km in data set [10] came to 380 µM. The same molecule gave a half-life in data set [5] of 7.5 min.
In turn, `CC(=O)Oc1ccccc1C(=O)Oc1ccccc1` had a K obs in [1] of 0.53 min⁻¹. This molecule also returned a K2 in data set [2] of 0.53 min⁻¹. This molecule registered a logP in [3] of 2.88. In data set [4], the Aspirin formed is listed as 0%. This molecule also yielded a solubility in data set [6] of 20 µg/mL (≈ 0.078 mM). For the same molecule, the half-life in data set [5] was 1.3 min.
With `CC(=O)Nc1ccc(OC(=O)c2ccccc2OC(C)=O)cc1` [BENORILATE], the K obs in data set [1] came to 0.487 min⁻¹. In data set [2], this molecule gave a K2 of 0.487 min⁻¹. In addition, the logP in data set [3] was found to be 2.15. In data set [4], this molecule gave an Aspirin formed of 0%. The same molecule registered a solubility in [6] of 20 µg/mL (≈ 0.0638 mM). The half-life in data set [5] amounted to 1.4 min.
In turn, `CCOC(=O)CN(C)C(=O)COC(=O)c1ccccc1OC(C)=O` showed a K obs in data set [1] of 0.34 min⁻¹. The K2 in data set [2] turned out to be 0.34 min⁻¹. In data set [3], the logP is 1.67. Moreover, the Aspirin formed in [4] was found to be 0%. This molecule displayed a solubility in [6] of 960 µg/mL (≈ 2.85 mM). In data set [5], this molecule registered a half-life of 2 min.
As to `CC(=O)Oc1ccccc1C(=O)OC[S+](C)[O-]` (configuration not stated), the K1 in data set [7] amounted to 0.0621 min⁻¹. The K obs in data set [1] was determined as 0.207 min⁻¹. The Aspirin formed is listed as 31% in [8] and 30% in [4]. Also, the K2 in [2] came out at 0.145 min⁻¹. In data set [3], this molecule registered a log partition coefficient (logP) of 0.11. In data set [6], the solubility was 4230 µg/mL (≈ 16.5 mM). Moreover, the half-life in data set [5] was determined as 3.3 min.
In data set [7], `CC(=O)Oc1ccccc1C(=O)OCC(=O)N(C)C` had a K1 of 0.105 min⁻¹. The same molecule returned a K obs in data set [1] of 0.209 min⁻¹. Further, the Aspirin formed in data set [8] is 49%; in data set [4], 50%. In [2], this molecule returned a K2 of 0.105 min⁻¹. This molecule also displayed a logP in data set [3] of 0.38. Moreover, the Km in [10] turned out to be 196 µM. In data set [5], this molecule had a half-life of 3.3 min.
As for `CCNC(=O)COC(=O)c1ccccc1OC(C)=O`, the K obs in data set [1] amounted to 0.26 min⁻¹. For the same molecule, the K2 in data set [2] was 0.26 min⁻¹. This molecule came in with a logP in data set [3] of 0.9. In addition, the Aspirin formed in [4] is listed as 0%. The molecule also returned a solubility in [6] of 5520 µg/mL (≈ 20.8 mM). In addition, the half-life in data set [5] was found to be 2.7 min.
Molecule `CC(=O)Oc1ccccc1C(=O)OCC(=O)N(C1CCCCC1)C1CCCCC1` came in with a K obs in [1] of 0.0335 min⁻¹. In addition, the K2 in data set [2] was 0.0335 min⁻¹. The same molecule came in with an Aspirin formed in [4] of 0%. Further, the half-life in data set [5] was found to be 20.7 min.
As for `CSCOC(=O)c1ccccc1OC(C)=O`, in data set [1], the K obs is 0.465 min⁻¹. Also, the K2 in data set [2] amounted to 0.465 min⁻¹. Moreover, the logP in data set [3] was 1.94. Also, in data set [4], the Aspirin formed amounted to 0%. The same molecule yielded a solubility in data set [6] of 550 µg/mL (≈ 2.29 mM). This molecule also returned a half-life in [5] of 1.5 min.
In turn, `CC(=O)Oc1ccccc1C(=O)OCCN(C)C.Cl` gave a K1 in [7] of 0.159 min⁻¹. This molecule showed a K obs in data set [1] of 2.65 min⁻¹. Further, the results for the Aspirin formed in data set [8] and in [4] were 8% and 6%, respectively. In addition, in [2], the K2 came to 2.49 min⁻¹. The molecule further yielded a solubility in [6] of over 200000 µg/mL. In addition, in [10], the Km came to 49 µM. Further, the half-life in data set [5] was found to be 0.26 min.
The molecule `CC(=O)Oc1ccccc1C(=O)OCC(=O)N(C)CCO` came in with a K1 in data set [7] of 0.0699 min⁻¹. For the same molecule, in data set [1], the K obs was determined as 0.184 min⁻¹. The results for the Aspirin formed in data set [8] and in data set [4] were 40% and 38%, respectively. For the same molecule, the K2 in data set [2] stood at 0.114 min⁻¹. The logP in data set [3] is 0.06. Further, the half-life in data set [5] stood at 3.8 min.
On to `CCCC(=O)OCOC(=O)c1ccccc1OC(C)=O`, for which, in [1], the K obs is 0.723 min⁻¹. In addition, the K2 in data set [2] came out at 0.723 min⁻¹. In data set [4], this molecule showed an Aspirin formed of 0%. In data set [6], this molecule had a solubility of 350 µg/mL (≈ 1.25 mM). Besides, the half-life in [5] was found to be 1 min.
`CC(=O)Oc1ccccc1C(=O)OCC(=O)N(C(C)C)C(C)C` displayed a K1 in data set [7] of 0.0092 min⁻¹. In data set [1], this molecule showed a K obs of 0.0462 min⁻¹. Further, the Aspirin formed is given as 21% in data set [8] and 20% in data set [4]. In data set [2], this molecule had a K2 of 0.037 min⁻¹. In data set [3], the logP is 2.03. Also, the half-life in data set [5] was determined as 15 min.
Consider `CC(=O)Oc1ccccc1C(=O)Oc1ccccc1C(=O)O` [DIPLOSALSALATE], for which, in data set [1], the K obs came out at 0.0094 min⁻¹. This molecule also had a K2 in [2] of 0.0094 min⁻¹. In data set [4], the Aspirin formed was determined as 0%. This molecule returned a half-life in data set [5] of 73.7 min.
In the case of `CC(=O)Oc1ccccc1C(=O)OCC(=O)NCC(N)=O`, the K obs in data set [1] was 0.136 min⁻¹. For the same molecule, the K2 in data set [2] came out at 0.136 min⁻¹. Also, the logP in data set [3] is -0.43. The molecule also displayed an Aspirin formed in [4] of 0%. In addition, the half-life in data set [5] stood at 5.1 min.

Broadly, the logP is the decadic logarithm of the partition coefficient of the neutral form, usually between octanol and water. The half-life is how long it takes for the measured level to halve. Broadly, the solubility is the concentration that dissolves in the medium under given conditions. The low end stands for little dissolved substance, the high end for much dissolved substance. The term Km denotes the concentration of substrate that gives half-maximal velocity.

The record behind these values is ChEMBL document CHEMBL1124435, “Evaluation of glycolamide esters and various other esters of aspirin as true aspirin prodrugs” (J Med Chem, 1989).
